US9567301B2, “Pyrrol-1-yl benzoic acid derivatives useful as myc inhibitors” (Whitehead Institute for Biomedical Research, priority 2012, dated 2017)
“Also recorded” adds a separate entry of the source. Like-named read-outs stand apart in the source and are kept apart here. Values belong to the compound of their own block, whether it stands above or below them.

Key:
protein:DNA complex = assay: Comparative biochemical analyses of protein:DNA complex formation (FIG. 10); type: binding; conditions: FIG. 10, DNA intercalator comparison
Jurkat cells = assay: Cell viability assay (ATPlite), Jurkat; type: cell-based, human; conditions: Homo sapiens, Jurkat; class symbols; NA: not active under assay conditions
Description: This assay was used for the H2171 and MM1S cell data shown in Table 2, and for the Jurkat (an immortalized line of human T lymphocyte cells), Ly1 (OCI-Ly1 human non-Hodgkin lymphoma cell line), Ly4 (OCI-Ly4 human non-Hodgkin lymphoma cell line), H2172 (NCI-H2172 human non-small cell lung cancer cell line), and CA-46 (a human Burkitt's lymphoma cell line) cell data shown in Table 3 and FIG. 12. Cells were counted and adjusted to 60,000 cells/mL. Using a Biotek EL406, 50 μL of cells are media were distributed into 384 well white plates from Thermo. Immediately after plating, compound in DMSO was distributed to plates. For large plate sets, cells were returned to 37° C. incubator while not in use.
Compounds were added to plates using a 100 nL 384 well pin transfer manifold on a Janus workstation. Stocks were arrayed in 10 point quadruplicate dose response in DMSO stock in 384 well Greiner compound plates. After addition of compound, plates were incubated for three days in a 37° C. incubator.
Cell viability was read out using ATPlite from Perkin Elmer. Plates were removed from the incubator and brought to room temperature prior to use. Lyophilized powder was resuspended in lysis buffer and diluted 1:2 with DI water. 25 μL of this solution was added to each well using the Biotek liquid handler. Plates were sealed with adherent aluminum seals prior to vortexing and spinning down at 1000 g for 1 minute. Plates were incubated for 15 minutes at room temperature before signal was read on an Envision Plate Reader.

MM1S cells = assay: Cell viability assay (ATPlite), MM1S; type: cell-based, human; conditions: for EC50: cell viability, three days, ATPlite, NA: inactive under assay conditions
Summary of the method: (§1)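 Cells seeded at 60,000 cells/mL and dosed immediately by pin transfer in 10-point quadruplicate dose response from DMSO stocks. After three days at 37 °C, viability was read by ATPlite luminescence after 15 min at room temperature.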

H2171 cells = assay: Cell viability assay (ATPlite), H2171; type: cell-based, human; conditions: for EC50: Homo sapiens, NCI-H2171, 72 h, cell viability, three days, ATPlite, NA: inactive under assay conditions
Summary of the method: as §1

c-Myc/Max/Ebox DNA [1] = target: T1, c-Myc/Max/Ebox DNA (Homo sapiens, UniProt P01106); assay: c-Myc/Max/Ebox DNA AlphaScreen assay; type: binding; design: An exemplary assay uses full-length human c-Myc and Max proteins; his6 (cleaved yes); made in house
T1 sequence (P01106 16-454): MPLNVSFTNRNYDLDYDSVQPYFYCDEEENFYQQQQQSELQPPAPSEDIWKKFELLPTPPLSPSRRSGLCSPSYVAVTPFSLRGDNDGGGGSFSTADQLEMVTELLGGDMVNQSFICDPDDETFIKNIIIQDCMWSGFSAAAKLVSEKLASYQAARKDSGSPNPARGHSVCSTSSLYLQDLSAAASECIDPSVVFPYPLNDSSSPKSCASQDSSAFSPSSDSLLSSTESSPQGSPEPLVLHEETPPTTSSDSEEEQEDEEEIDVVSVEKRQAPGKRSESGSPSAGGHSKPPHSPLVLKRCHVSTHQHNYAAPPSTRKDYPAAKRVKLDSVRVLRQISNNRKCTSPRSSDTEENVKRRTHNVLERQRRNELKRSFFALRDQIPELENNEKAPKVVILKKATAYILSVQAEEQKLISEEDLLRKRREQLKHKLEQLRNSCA
Summary of the method: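 Free c-Myc (25 nM), made by thrombin removal of the His6 tag, is pre-mixed with biotin-Ebox DNA (10 nM) and Ni acceptor beads before compound addition, then His6-Max (1.25 nM) and streptavidin donor beads are added. Buffer is HEPES pH 8.0 with BSA, Tween20, glycogen and DTT. Read after 2 h, excitation 680 nm, emission 520–620 nm.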

[2] = test system: HL-60 promyelocytic leukemia cells; assay: HL-60 differentiation (qRT-PCR, FACS); type: cell-based, human; conditions: HL-60 cells
Description: FIG. 7 depicts the assessment of on-target activity versus general toxicity. HL-60 promyelocytic leukemia cells express high levels of c-Myc to maintain a proliferative and undifferentiated cell state. Loss of c-Myc function results in loss of cellular proliferation and induction of cellular differentiation. HL-60 cells were treated with DMSO, 64 (12.5 μM or 25 μM), or 151 (25 μM) for four days.

MITF/MITF/Ebox DNA = target: T2, MITF/MITF/Ebox DNA (Homo sapiens, UniProt O75030); assay: Gelshift assay, MITF/MITF/Ebox DNA complex formation; type: binding; conditions: relative to DMSO at 2.5 µM (FIG. 9)
T2 sequence (O75030 1-526): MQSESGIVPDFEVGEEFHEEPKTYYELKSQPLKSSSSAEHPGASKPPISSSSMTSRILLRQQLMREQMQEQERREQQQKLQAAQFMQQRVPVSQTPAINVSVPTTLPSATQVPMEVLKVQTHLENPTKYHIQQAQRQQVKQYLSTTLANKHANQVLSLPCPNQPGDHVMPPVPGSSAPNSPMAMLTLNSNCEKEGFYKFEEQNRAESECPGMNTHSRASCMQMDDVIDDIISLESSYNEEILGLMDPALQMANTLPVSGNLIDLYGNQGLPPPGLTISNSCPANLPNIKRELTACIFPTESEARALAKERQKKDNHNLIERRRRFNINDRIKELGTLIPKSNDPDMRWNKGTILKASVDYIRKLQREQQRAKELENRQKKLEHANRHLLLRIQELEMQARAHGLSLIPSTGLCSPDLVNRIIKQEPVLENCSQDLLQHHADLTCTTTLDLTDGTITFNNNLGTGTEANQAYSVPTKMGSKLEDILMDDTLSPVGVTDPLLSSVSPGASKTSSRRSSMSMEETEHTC
Description: (§2) Compounds tested at 2.5 μM for their inhibitory activity against c-Myc/Max/Ebox DNA, Max/Max/Ebox DNA and MITF/MITF/Ebox DNA complex formation using gelshift assays.
(§3) AlphaScreen hits can be validated using orthogonal biochemical assays such as a gelshift assay (also called an electrophoretic mobility shift assay) with purified components or cellular lysates. FIG. 5 (left) illustrates how the AlphaScreen hit 63 was validated using a gelshift assay with purified c-Myc, Max and Ebox DNA. […] Compounds and analogs were then examined for potency and selectivity against structurally similar transcription factor:DNA complexes, such as Max/Max/Ebox DNA and MITF/MITF/Ebox DNA. Data in FIG. 9 show how analogs can be tested for potency against structurally similar transcription factors and how medicinal chemistry optimization can drive potency and selectivity against different transcription factor:DNA complexes. […] The selectivity among structurally similar transcription factors can also provide insights into compound mechanism of action. […] Cellular assays can compliment the biochemical analyses to measure the cellular potency of compounds to induce cellular phenotypes expected as a result of loss of transcription factor function. This includes gene expression analysis, chromatin immunoprecipitation (ChIP) analysis, cellular proliferation analysis and cell state analysis. Gene expression analysis can be performed using qRT-PCR, Nanostring technology, microarray technology, or RNA-seq technology to study transcript changes following treatment with compound. ChIP analysis can be performed on the factor of interest to study if compound treatment alters its genomic occupancy. Cellular proliferation and cell state analysis can indicate if the compound alters cell cycle progression or cellular identity. Thus, the approach using biochemical and cellular assays with large chemical libraries or focused libraries of hits identified in high throughput screens can serve as a platform to develop inhibitors of transcription factor function.

Max/Max/Ebox DNA = Max/Max/Ebox DNA (Homo sapiens, UniProt P61244); assay: Gelshift assay, Max/Max/Ebox DNA complex formation; type: binding; conditions: relative to DMSO at 2.5 µM (FIG. 9)
Sequence of Max/Max/Ebox DNA (P61244 whole entry): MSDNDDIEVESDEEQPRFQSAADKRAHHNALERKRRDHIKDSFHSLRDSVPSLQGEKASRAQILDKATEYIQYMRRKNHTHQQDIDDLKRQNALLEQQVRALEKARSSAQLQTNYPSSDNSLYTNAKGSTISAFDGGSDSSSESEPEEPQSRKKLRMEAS
Description: as §2
as §3, with “Gene expression analysis can be performed using qRT-PCR, Nanostring technology, microarray technology, or RNA-seq technology to study transcript changes following treatment with compound. ChIP analysis can be performed on the factor of interest to study if compound treatment alters its genomic occupancy. Cellular proliferation and cell state analysis can indicate if the compound alters cell cycle progression or cellular identity. Thus, the approach using biochemical and cellular assays with large chemical libraries or focused libraries of hits identified in high throughput screens can serve as a platform to develop inhibitors of transcription factor function.” left out

c-Myc/Max/Ebox DNA [3] = target: T1, c-Myc/Max/Ebox DNA; assay: Gelshift assay, c-Myc/Max/Ebox DNA complex formation; type: binding
Description: FIG. 5 describes validation of Compound 63 activity using an orthogonal biochemical assay. […] Decreasing amounts of 63 was added to purified c-Myc, Max and biotinylated Ebox DNA. Biotinylated Ebox DNA complexed with protein (either c-Myc/Max or Max/Max) or free (bottom band) was assayed using a 6% retardation gel, transferred to a membrane and detected using straptavidin-HRP. […]
as §3

c-Myc = target: T3, c-Myc (Homo sapiens, UniProt P01106); assay: c-Myc chromatin immunoprecipitation assay in H2171 cells; type: cell-based; conditions: 100 μM, 4 hours
T3 construct: c-Myc genomic occupancy in H2171 cells treated with DMSO, Compound 63 (100 μM) or CC34301 (100 μM); endogenous in cells; host or cells: H2171
T3 sequence (P01106 whole entry): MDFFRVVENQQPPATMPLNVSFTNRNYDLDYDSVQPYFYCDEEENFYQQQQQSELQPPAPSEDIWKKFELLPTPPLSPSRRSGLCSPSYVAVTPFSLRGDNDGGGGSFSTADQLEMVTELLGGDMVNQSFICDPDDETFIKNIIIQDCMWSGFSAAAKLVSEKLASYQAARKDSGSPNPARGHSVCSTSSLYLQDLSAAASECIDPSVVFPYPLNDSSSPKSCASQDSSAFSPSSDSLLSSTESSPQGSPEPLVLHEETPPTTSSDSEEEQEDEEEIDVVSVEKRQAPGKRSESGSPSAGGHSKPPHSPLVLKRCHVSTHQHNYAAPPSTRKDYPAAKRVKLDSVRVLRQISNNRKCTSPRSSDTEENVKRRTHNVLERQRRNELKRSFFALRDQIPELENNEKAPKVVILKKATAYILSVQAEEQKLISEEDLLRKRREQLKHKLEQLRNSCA
Description: FIG. 6 depicts a c-Myc chromatin immunoprecipitation assay to investigate c-Myc genomic occupancy in H2171 cells treated with DMSO, Compound 63 (100 μM) or CC34301 (100 μM) for 4 hours. Standard chromatin immunoprecipitation procedures were followed using an antibody specific to c-Myc (Santa Cruz, catalogue number sc-764). Quantitative PCR analysis was performed on four c-Myc binding sites (Npm1, Mat2a, Hnrnpa2b1, and Rp123a) and one non-binding site (Neg region) and normalized to a background region to determine the fold enrichment over background.

[4] = c-Myc/Max/Ebox DNA AlphaScreen, NA: inactive under assay conditions, read-out: Biochemical IC50
[5] = class symbols, NA: not active under assay conditions, read-out: Myc/Max IC50
[6] = relative to DMSO at 2.5 mM (FIG. 9)

Compound: COc1cccc2c1C(=O)c1c(O)c3c(c(O)c1C2=O)C[C@@](O)(C(=O)CO)C[C@@H]3O[C@H]1C[C@H](N)[C@H](O)[C@H](C)O1 [doxorubicin]
protein:DNA complex formation (protein:DNA complex): non-specifically disrupts protein:DNA complex formation

EC50 (Jurkat cells): 10 to 100 µM
EC50 (MM1S cells; Homo sapiens, MM1.S, 72 h): 52.3 µM
EC50 (H2171 cells): 29.9 µM
IC50 (c-Myc/Max/Ebox DNA [1]; [4]): 155 µM
IC50 (c-Myc/Max/Ebox DNA [1]; [5]): ≥ 100 µM
Compound: CC(=O)OCOC(=O)c1ccccc1-n1c(C)ccc1C [Compound 64]
cellular activity/potency in cellular proliferation assay (MM1S cells; MM1.S, prodrug relative to free acid (FIG. 3, FIG. 4)): increased cellular activity
cellular activity in cellular proliferation assay (H2171 cells; H2171, relative to free acid Compound 63 (FIG. 3)): increased cellular activity
expression of differentiation markers (qRT-PCR) ([2]; 12.5 μM or 25 μM, four days): induces the expression of three differentiation markers (CD14, CD11c, and CCL4)
differentiation marker CD11c (FACS) ([2]; 4 days): express the differentiation marker CD11c

EC50 (Jurkat cells): 10 to 100 µM
MITF/MITF/Ebox DNA complex formation (MITF/MITF/Ebox DNA): potently disrupted
Max/Max/Ebox DNA complex formation (Max/Max/Ebox DNA): potently disrupted
biochemical activity (c-Myc/Max/Ebox DNA [1]; FIG. 4): increased biochemical activity
IC50 (c-Myc/Max/Ebox DNA [1]; [5]): 1 to 10 µM
c-Myc/Max/Ebox DNA complex formation (c-Myc/Max/Ebox DNA [3]; [6]): potently disrupted
Compound: Cc1ccc(C)n1-c1cc(C(=O)N/N=C/c2cccc(C(=O)O)c2)ccc1C(=O)O [Compound 101, (E)-4-(2-(3-carboxybenzylidene)hydrazinecarbonyl)-2-(2,5-dimethyl-1H-pyrrol-1-yl)benzoic acid]

MITF/MITF/Ebox DNA complex formation (MITF/MITF/Ebox DNA): disrupted
IC50 (c-Myc/Max/Ebox DNA [1]; [4]): 0.531 µM
c-Myc/Max/Ebox DNA complex formation (c-Myc/Max/Ebox DNA [3]; [6]): disrupted
Compound: Cc1ccc(C)n1-c1cc(C(=O)N/N=C/c2ccc(O)c(O)c2O)ccc1C(=O)O [Compound 79]

EC50 (MM1S cells): 322 µM
EC50 (H2171 cells): 96.9 µM
IC50 (c-Myc/Max/Ebox DNA [1]; [4]): 24.2 µM
selectivity c-Myc/Max versus Max/Max (c-Myc/Max/Ebox DNA [3]; at tested doses (FIG. 5)): selectivity towards c-Myc/Max
Max genomic occupancy (c-Myc): largely unchanged
c-Myc protein levels (c-Myc): unchanged
c-Myc occupancy at binding sites (Npm1, Mat2a, Hnrnpa2b1, Rp123a) (c-Myc; compared to DMSO or CC34301): reduced c-Myc occupancy
Compound: Cc1ccc(C)n1-c1ccccc1C(=O)O [Compound 63, 2-(2,5-dimethylpyrrolyl)benzoic acid]
c-Myc/Max/Ebox DNA complex formation (c-Myc/Max/Ebox DNA [3]; decreasing amounts of compound (FIG. 5)): reduced c-Myc/Max/Ebox DNA complex formation in a dose-dependent manner; also recorded: inhibits c-Myc/Max/Ebox DNA complex formation (top band) in a dose dependent manner
